{
  "source": "ChEMBL document CHEMBL1201862",
  "about": "“PubChem BioAssay data set” (2004)",
  "key": {"[1]": {"target": "T1, Heat shock factor protein 1 (Mus musculus, UniProt P38532)", "T1 sequence (P38532 whole entry)": "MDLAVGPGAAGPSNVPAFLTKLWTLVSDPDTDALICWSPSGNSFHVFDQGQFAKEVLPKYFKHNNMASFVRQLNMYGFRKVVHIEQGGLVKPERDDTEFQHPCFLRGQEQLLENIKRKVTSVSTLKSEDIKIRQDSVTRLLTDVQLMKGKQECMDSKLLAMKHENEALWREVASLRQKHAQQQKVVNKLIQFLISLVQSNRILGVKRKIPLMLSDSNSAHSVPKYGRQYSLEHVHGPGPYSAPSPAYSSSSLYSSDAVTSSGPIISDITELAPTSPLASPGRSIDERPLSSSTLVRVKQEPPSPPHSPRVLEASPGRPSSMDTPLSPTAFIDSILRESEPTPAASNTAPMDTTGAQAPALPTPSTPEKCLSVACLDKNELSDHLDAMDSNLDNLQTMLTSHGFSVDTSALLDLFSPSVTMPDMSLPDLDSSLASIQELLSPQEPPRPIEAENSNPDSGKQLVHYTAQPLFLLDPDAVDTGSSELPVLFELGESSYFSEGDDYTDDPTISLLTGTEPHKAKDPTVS", "assay": "HSF1 potentiators in luciferase reporter cells, confirmation, cell-based, NIH3T3, luminescence, dose retest (AID 435004);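 further: stress induced by proteasome inhibitor MG132 added 30 min after compound; actives raise luminescence as potentiators of the MG132 stress response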", "type": "functional"}, "Prothrombin": {"target": "Prothrombin (Homo sapiens, UniProt P00734)", "assay": "Thrombin 1536 HTS Dose Response Confirmation. [Related pubchem assays: 1046 (Thrombin 1536 HTS; hits were confirmed in this assay)]", "type": "functional"}, "[2]": {"assay": "inhibitors of clade B AD8 Env fusion, dose response, cell-based, cherry-pick (AID 652062);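 further: luciferase signal from cell-cell fusion driven by HIV-1 clade B AD8 Env; potency is for inhibitors of fusion seen as a drop in luminescence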", "type": "functional"}, "[3]": {"assay": "HepG2 cell cytotoxicity, dose response, cytotoxicity control, plate reader, cherry-pick, antagonist series (AID 743416)", "type": "functional, cell-based"}, "[4]": {"assay": "LGR2 antagonists, dose response, cell-based, HEK293, CRE-luciferase reporter, cherry pick, set 2 (AID 743343);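 further: transfected cells were stimulated with diluted bursicon conditioned medium after compound addition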", "type": "functional"}, "[5]": {"assay": "A549 cell cytotoxicity, dose response, cytotoxicity control, plate reader, cherry-pick, antagonist series (AID 743412)", "type": "functional, cell-based"}, "[6]": {"assay": "MC4R antagonists, dose response, counter-screen for LGR2 antagonist project, cell-based, plate reader, cherry pick (AID 743444);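 further: transfected HEK 293 cells stimulated with alpha-MSH peptide; potency of inhibitors of the alpha-MSH evoked signal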", "type": "functional"}, "[7]": {"target": "T2, DNA repair protein RAD52 homolog (Homo sapiens, UniProt P43351)", "T2 sequence (P43351 whole entry)": "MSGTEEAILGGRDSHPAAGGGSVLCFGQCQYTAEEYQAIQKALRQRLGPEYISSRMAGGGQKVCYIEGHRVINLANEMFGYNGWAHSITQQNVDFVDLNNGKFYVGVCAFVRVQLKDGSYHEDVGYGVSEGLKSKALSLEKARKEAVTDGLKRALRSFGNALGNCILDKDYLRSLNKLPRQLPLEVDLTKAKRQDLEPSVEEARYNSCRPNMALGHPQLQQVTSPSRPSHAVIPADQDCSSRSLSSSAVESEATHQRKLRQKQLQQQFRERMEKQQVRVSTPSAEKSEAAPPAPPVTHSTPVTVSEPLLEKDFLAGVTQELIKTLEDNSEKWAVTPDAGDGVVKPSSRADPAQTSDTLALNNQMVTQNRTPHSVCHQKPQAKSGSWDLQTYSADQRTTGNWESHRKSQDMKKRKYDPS", "type": "functional, biochemical"}, "Estrogen receptor": {"target": "T3, Estrogen receptor (Homo sapiens, UniProt P03372)", "T3 sequence (P03372 whole entry)": "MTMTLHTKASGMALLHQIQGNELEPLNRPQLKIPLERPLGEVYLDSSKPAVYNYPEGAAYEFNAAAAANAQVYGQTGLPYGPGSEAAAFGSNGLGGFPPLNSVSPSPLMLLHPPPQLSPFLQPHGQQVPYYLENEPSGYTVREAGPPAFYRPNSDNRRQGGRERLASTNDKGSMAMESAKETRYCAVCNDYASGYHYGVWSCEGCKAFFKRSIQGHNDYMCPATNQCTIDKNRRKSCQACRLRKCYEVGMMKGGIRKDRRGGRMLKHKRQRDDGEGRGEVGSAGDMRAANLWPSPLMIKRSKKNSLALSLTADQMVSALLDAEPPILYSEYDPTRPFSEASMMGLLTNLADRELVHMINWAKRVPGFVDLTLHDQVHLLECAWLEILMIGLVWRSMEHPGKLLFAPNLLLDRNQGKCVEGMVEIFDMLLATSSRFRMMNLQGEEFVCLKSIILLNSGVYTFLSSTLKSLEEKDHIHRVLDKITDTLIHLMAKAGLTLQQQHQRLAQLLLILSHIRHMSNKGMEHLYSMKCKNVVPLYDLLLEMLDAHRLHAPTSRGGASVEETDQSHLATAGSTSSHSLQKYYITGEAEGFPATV"}, "[8]": {"assay": "growth suppression of beta-catenin-knockout colon cells, dose response, cell-based, HCT116, human colon tumor (AID 1045);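 further: HCT116 colon tumor cells with beta catenin knocked out; cells exposed to compound for 60 hours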", "type": "functional"}, "[9]": {"assay": "growth suppression of PTEN-null colon cells, dose response, cell-based, HCT116 PTEN knockout (AID 1047);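 further: HCT116 colon tumor cells with PTEN knocked out; cells exposed to compound for 60 hours before readout; potency for loss of cell viability measured by luminescence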", "type": "functional"}},
  "note": "Activity calls are given as the source filed them.",
  "data": [
    {"smiles": "Cc1ccc(C(=O)n2cnnc2N)cc1", "values": [
      {"measurement": "EC50", "setting": "[1]", "value": "> 260 µM (inactive)"},
      {"measurement": "IC50", "setting": "Prothrombin", "value": "4.05 µM (active)"}
    ]},
    {"smiles": "O=C(COC(=O)c1ncc(Cl)c(Cl)c1Cl)NCc1cccs1", "values": [
      {"measurement": "AC50", "setting": "[2]", "value": "1.12 µM (active)"}
    ]},
    {"smiles": "O=C(O)c1ccc(/C=N/NC(=O)c2ccc(F)cc2)cc1", "values": [
      {"measurement": "IC50", "setting": "Prothrombin", "value": "> 50 µM (not active)"}
    ]},
    {"smiles": "COc1ccc(S(=O)(=O)N(C)C[C@@H]2OCc3cnnn3CCCC(=O)N([C@@H](C)CO)C[C@H]2C)cc1", "values": [
      {"measurement": "AC50", "setting": "[3]", "value": "> 52 µM (inactive)"},
      {"measurement": "AC50", "setting": "[4]", "value": "2.36 µM (active)"},
      {"measurement": "AC50", "setting": "[5]", "value": "> 52 µM (inactive)"},
      {"measurement": "AC50", "setting": "[6]", "value": "1.75 µM (active)"}
    ]},
    {"smiles": "COc1cc(/C=C2\\SC(=O)N(CCN)C2=O)ccc1OS(=O)(=O)c1cc(C)ccc1C", "values": [
      {"measurement": "AC50", "setting": "[7]", "value": "5.08 µM (active)"}
    ]},
    {"smiles": "CCOC(=O)Cc1ccc(NS(=O)(=O)c2ccc(SC)cc2)cc1", "values": [
      {"measurement": "IC50", "setting": "Estrogen receptor", "value": "> 50 µM (not active)"}
    ]},
    {"smiles": "Cc1ccc2nc(O)c(-c3nc4ccccn4c3NCc3ccco3)cc2c1", "values": [
      {"measurement": "EC50", "setting": "[8]", "value": "28.4 µM (active)"},
      {"measurement": "EC50", "setting": "[9]", "value": "18.7 µM (active)"},
      {"measurement": "IC50", "setting": "Estrogen receptor", "value": "25.7 µM (active)"}
    ]},
    {"smiles": "C/C(=N\\Nc1ccc(Cl)c(C(=O)O)c1)c1cccc([N+](=O)[O-])c1", "values": [
      {"measurement": "IC50", "setting": "Prothrombin", "value": "> 50 µM (not active)"}
    ]}
  ]
}
